Data reported in paper PMC10895678 (Journal of Medicinal Chemistry, 2024).
≈ marks a conversion by molar mass, not a printed value.

What was measured:
MDR-M. tb 08/00483E = assay: microbe, parasite or virus in culture; assay type: cell-based, Mycobacterium tuberculosis; conditions: for MIC99: Mycobacterium tuberculosis, read-out: MDR-M. tb 08/00483E MIC99
[1] = tested on: M. smegmatis and M. bovis BCG

Compound | fold lower MIC in MDR isolate 08/00483E in comparison to the drug-sensitive isolate (MDR-M. tb 08/00483E) [fold] | MIC99 (MDR-M. tb 08/00483E) [µM] | resistant colonies formed [1]
CNCC1CC(c2ccc(OC(F)(F)F)cc2)N1Cc1ccccc1OC(F)(F)F (centres unmarked) [BGAz-005] | 8 | 2.8 (≈ 1.22 µg/mL) | –
Brc1cc(Br)cc(C2CC(CN3CCCC3)N2Cc2ccccc2Br)c1 (centres unmarked) [BGAz-004] | – | 15.6 (≈ 8.47 µg/mL) | –
FC(F)(F)Oc1ccc(C2CC(CN3CCCC3)N2Cc2ccccc2OC(F)(F)F)cc1 (centres unmarked) [BGAz-002] | – | 33.5 (≈ 15.9 µg/mL) | three resistant colonies
